Reference: paper PMC12845261, “Design, Synthesis, and Biological Evaluation of N-Acyl-Hydrazone-Linked Quinazolinone Derivatives with Antioxidant, Antimicrobial, and Anticancer Potential” (Pharmaceuticals, 2025)
Converted amounts (≈) assume the structure as drawn.

Legend:
Format in all cases: cell-based
[1] = tested on: E. coli ATCC 25922; experiment: Microbial adhesion, crystal violet (MICMA); settings: DMSO control 5
Description: (§1) For the evaluation of antimicrobial activity, the following reference strains were used: S. aureus ATCC 25923, E. faecalis ATCC 29212, E. coli ATCC 25922, P. aeruginosa ATCC 27853 and C. albicans ATCC 10231.
(§2) Following quantitative analysis of antimicrobial activity, microbial adhesion was evaluated after methanol fixation and violet crystal staining (0.1%). The absorbance of the adhered biomass colored with violet crystal and resuspended in 33% acetic acid was measured at 490 nm.

[2] = tested on: S. aureus ATCC 25923; experiment: Microbial adhesion, crystal violet (MICMA); settings: DMSO control 5
Description: as §1, §2

[3] = tested on: C. albicans ATCC 10231; experiment: Microbial adhesion, crystal violet (MICMA); settings: DMSO control 1.25
Description: as §1, §2

[4] = tested on: P. aeruginosa ATCC 27853; experiment: Microbial adhesion, crystal violet (MICMA); settings: DMSO control 1.25
Description: as §1, §2

[5] = tested on: E. faecalis ATCC 29212; experiment: Microbial adhesion, crystal violet (MICMA); settings: DMSO control 2.5
Description: as §1, §2

[6] = tested on: E. coli ATCC 25922; experiment: Quantitative antimicrobial activity, serial binary microdilution (MIC, IC50); settings: for MIC: Escherichia coli, ATCC25922, E. coli ATCC 25922, 24 h, 37 °C, DMSO control 1.25
Description: as §1
(§3) Quantitative analysis was performed using the method of serial binary microdilutions in liquid medium (Tryptone Soy Broth for bacteria and Sabouraud Broth for yeasts) in plates with 96 wells. Stock solutions of 10 mg/mL were made in DMSO, and the range of concentrations tested for each compound was 5000–0.16 μg/mL. Simultaneously, the DMSO control was carried out under the same working conditions. Each well was inoculated with 10 μL of microbial suspension, adjusted to a density of 1.5 × 10^8 CFU/mL prepared from 18 to 24 h cultures. After 24 h of incubation at 37 °C, microbial growth and multiplication were evaluated both macroscopically and spectrophotometrically at 620 nm to establish the MIC values. […] Blanks were made for each sample concentration, and the formula was applied: Microbial viability(%)=Asample−Ablank/Astrain control−Asterility control·100

[7] = tested on: S. aureus ATCC 25923; experiment: as above; settings: 24 h; for MIC (mg/mL) / MIC: S. aureus ATCC 25923, 37 °C, DMSO control 2.5
Description: as §1, §3

[8] = tested on: E. faecalis ATCC 29212; experiment: as above; settings: 37 °C, DMSO control 2.5; for MIC (mg/mL): 24 h; for MIC: Enterococcus faecalis, ATCC29212, 24 h
Description: as §1, §3

[9] = tested on: E. coli ATCC 25922; experiment: Qualitative antimicrobial activity, adapted Kirby-Bauer (inhibition zone); settings: 10 μL of 10 mg/mL DMSO stock, mean ± SD
Description: (§4) For the evaluation of antimicrobial activity, the following reference strains were used: S. aureus ATCC 25923, E. faecalis ATCC 29212, E. coli ATCC 25922, P. aeruginosa ATCC 27853 and C. albicans ATCC 10231. The microbial suspensions were prepared at a density of 1.5 × 10^8 CFU/mL, corresponding to the McFarland 0.5 nephelometric standard. These suspensions were obtained from 18–24 h cultures developed on solid media (Mueller-Hinton for bacteria, Sabouraud for yeast). Antimicrobial activity was assessed using an adapted Kirby-Bauer method according to CLSI (Clinical and Laboratory Standards Institute). In addition to the 10 mg/mL stock solutions prepared in DMSO for each compound, a solvent control was used. Each stock solution (10 μL) was distributed in spot on the medium inoculated with the interest strain. After measuring the diameter of the inhibition zone (IZD) around the spot (mm), the results were expressed as the mean ± standard deviation (SD) for each compound tested in duplicate.

[10] = tested on: S. aureus ATCC 25923; experiment: as above; settings: 10 μL of 10 mg/mL DMSO stock, mean ± SD
Description: as §4

[11] = tested on: C. albicans ATCC 10231; experiment: as above; settings: 10 μL of 10 mg/mL DMSO stock, mean ± SD
Description: as §4

[12] = tested on: P. aeruginosa ATCC 27853; experiment: as above; settings: 10 μL of 10 mg/mL DMSO stock, mean ± SD
Description: as §4

[13] = tested on: E. faecalis ATCC 29212; experiment: as above; settings: 10 μL of 10 mg/mL DMSO stock, mean ± SD
Description: as §4

[14] = tested on: VERO (non-tumoral African green monkey kidney epithelial cells); experiment: Cytotoxicity, MTT assay; settings: 24 h; for Cytotoxic effect on normal cells (in words): 3.125 to 50 µM
Description: For the cytotoxicity screening of the N-acyl-hydrazone derivatives, three cell lines were employed: HT-29 (human colorectal adenocarcinoma), A431 (human epidermoid carcinoma), and VERO (non-tumoral African green monkey kidney epithelial cells). All cell lines were obtained from the American Type Culture Collection (ATCC, Manassas, VA, USA), and maintained in appropriate culture media as follows: HT-29 and A431 cells were cultured in Dulbecco’s Modified Eagle Medium (DMEM), while VERO cells were cultured in Minimum Essential Medium (MEM). Both culture media were supplemented with 10% fetal bovine serum (FBS) and 1% penicillin-streptomycin mix, to formulate the complete culture medium. All cell lines were incubated at 37 °C in a humidified atmosphere containing 5% CO2. […] For the cytotoxicity screening, cells were seeded into sterile 96-well plates at an initial density of 1 × 10^4 cells/well and allowed to adhere for 24 h. Subsequently, cells were treated with increasing concentrations (3.125 to 50 µM) of compounds 1a–1f and 2 for 24 h. In parallel, 5-fluorouracil (5-FU, Sigma Aldrich, St. Louis, MO, USA) was included as a reference drug and tested over the same concentration range under identical experimental conditions. […] For the experimental control, culture medium was refreshed at the time of treatment application. […] Louis, MO, USA). Briefly, the culture media were discarded from each well and replaced with a fresh solution of MTT (1 mg/mL). Plates were incubated for 4 h at 37 °C, and the resulting formazan crystals were solubilized with isopropanol. The absorbance was measured at 550 nm using the FlexStation III multimodal reader (Molecular Devices, San Jose, CA, USA). All experiments were performed in triplicate and repeated in three independent assays. Cell viability was calculated as a percentage relative to the untreated control using the formula Cell Viability (%) = (Abs treated/Abs control) × 100. Data were processed using GraphPad Prism 6.0 and presented as mean ± standard deviation (SD). Statistical analysis was performed using one-way analysis of variance (ANOVA) followed by Dunnett’s post hoc test for comparison with the untreated control group.

[15] = tested on: E. coli ATCC 25922; experiment: Microbicidal activity (MMC); settings: DMSO control 5
Description: For the evaluation of antimicrobial activity, the following reference strains were used: S. aureus ATCC 25923, E. faecalis ATCC 29212, E. coli ATCC 25922, P. aeruginosa ATCC 27853 and C. albicans ATCC 10231. To determine the MMCs, 5 μL of culture was taken from each well and distributed on solid medium. The plates were incubated for 20–24 h at 37 °C. The lowest concentration at which no microbial growth was observed was considered MMC.

[16] = Staphylococcus aureus, ATCC25923
[17] = at lower concentrations (below 50 µM)

SMILES | MICMA [1] | MICMA [2] | MICMA [3] | MICMA [4] | MICMA [5] | MIC [6] | MIC (mg/mL) [7] | MIC [7, 16] | MIC [8] | IZD (mm) [9] | IZD (mm) [10] | IZD (mm) [11] | IZD (mm) [12] | IZD (mm) [13] | MMC [15] | Cytotoxic effect on normal cells (in words) [14] | other results
Cc1nc2ccccc2c(=O)n1CC(=O)N/N=C/c1cc(Br)ccc1O [Compound 1a, N′-[(E)-(5-bromo-2-hydroxyphenyl)methylidene]-2-(2-methyl-4-oxoquinazolin-3(4H)-yl)acetohydrazide] | 1.25 mg/mL | 2.5 mg/mL | 0.625 mg/mL | 0.625 mg/mL | 1.25 mg/mL | 1250 µg/mL (≈ 3.01 mM) | specifically active | 1250 µg/mL (≈ 3.01 mM) | 1250 µg/mL (≈ 3.01 mM) | 0.00 ± 0.00 mm | 0.00 ± 0.00 mm | 0.00 ± 0.00 mm | 0.00 ± 0.00 mm | 0.00 ± 0.00 mm | – | – | MIC (mg/mL) [8]: specifically active
Cc1nc2ccccc2c(=O)n1CC(=O)N/N=C/c1cc(Br)cc(Br)c1O [Compound 1b, N′-[(E)-(3,5-bromo-2-hydroxyphenyl)methylidene]-2-(2-methyl-4-oxoquinazolin-3(4H)-yl)acetohydrazide] | 2.5 mg/mL | 1.25 mg/mL | 5 mg/mL | 1.25 mg/mL | 5 mg/mL | 1250 µg/mL (≈ 2.53 mM) | specifically active | 312 µg/mL (≈ 0.632 mM) | > 5000 µg/mL | 0.00 ± 0.00 mm | 12.33 ± 0.58 mm | 0.00 ± 0.00 mm | 0.00 ± 0.00 mm | 0.00 ± 0.00 mm | – | – | IC50 ([7]; Staphylococcus aureus, ATCC25923, S. aureus, four-parameter fit of microbial viability): 85.7 µg/mL (≈ 0.173 mM); Effect on cell viability (in words) [14, 17]: statistically significant increase in cell viability
COc1cccc(/C=N/NC(=O)Cn2c(C)nc3ccccc3c2=O)c1O [Compound 1c, N′-[(E)-(2-hydroxy-3-methoxyphenyl)methylidene]-2-(2-methyl-4-oxoquinazolin-3(4H)-yl)acetohydrazide] | 2.5 mg/mL | 2.5 mg/mL | 0.625 mg/mL | 1.25 mg/mL | 2.5 mg/mL | 1250 µg/mL (≈ 3.41 mM) | – | 2500 µg/mL (≈ 6.82 mM) | 2500 µg/mL (≈ 6.82 mM) | 0.00 ± 0.00 mm | 7.67 ± 0.58 mm | 6.67 ± 0.58 mm | 0.00 ± 0.00 mm | 7.67 ± 0.58 mm | 5 mg/mL | – | IC50 (antimicrobial activity) compared with solvent control ([6]; E. coli, versus DMSO, p < 0.05): significantly lower IC50 values than the solvent control
COc1ccc(/C=N/NC(=O)Cn2c(C)nc3ccccc3c2=O)c(O)c1 [Compound 1d, N′-[(E)-(2-hydroxy-4-methoxyphenyl)methylidene]-2-(2-methyl-4-oxoquinazolin-3(4H)-yl)acetohydrazide] | 2.5 mg/mL | 2.5 mg/mL | 1.25 mg/mL | 1.25 mg/mL | 5 mg/mL | 1250 µg/mL (≈ 3.41 mM) | – | 2500 µg/mL (≈ 6.82 mM) | 5000 µg/mL (≈ 13.6 mM) | 0.00 ± 0.00 mm | 0.00 ± 0.00 mm | 0.00 ± 0.00 mm | 0.00 ± 0.00 mm | 0.00 ± 0.00 mm | 5 mg/mL | – | Effect on cell viability (in words) ([14]; at 50 µM, compared to the untreated control): statistically significant decrease in viability; Effect on cell viability (in words) [14, 17]: statistically significant increase in cell viability
COc1ccc(O)c(/C=N/NC(=O)Cn2c(C)nc3ccccc3c2=O)c1 [Compound 1e, N′-[(E)-(2-hydroxy-5-methoxyphenyl)methylidene]-2-(2-methyl-4-oxoquinazolin-3(4H)-yl)acetohydrazide] | 5 mg/mL | 2.5 mg/mL | 2.5 mg/mL | 1.25 mg/mL | 5 mg/mL | 5000 µg/mL (≈ 13.6 mM) | specifically active | 1250 µg/mL (≈ 3.41 mM) | 5000 µg/mL (≈ 13.6 mM) | 0.00 ± 0.00 mm | 0.00 ± 0.00 mm | 0.00 ± 0.00 mm | 0.00 ± 0.00 mm | 0.00 ± 0.00 mm | 5 mg/mL | strong cytotoxic effects | –
COc1cc(/C=N/NC(=O)Cn2c(C)nc3ccccc3c2=O)cc([N+](=O)[O-])c1O [Compound 1f, N′-[(E)-(4-hydroxy-3-methoxy-5-nitrophenyl)methylidene]-2-(2-methyl-4-oxoquinazolin-3(4H)-yl)acetohydrazide] | 2.5 mg/mL | 2.5 mg/mL | 1.25 mg/mL | 1.25 mg/mL | 2.5 mg/mL | 1250 µg/mL (≈ 3.04 mM) | – | 2500 µg/mL (≈ 6.08 mM) | 1250 µg/mL (≈ 3.04 mM) | 0.00 ± 0.00 mm | 0.00 ± 0.00 mm | 0.00 ± 0.00 mm | 0.00 ± 0.00 mm | 0.00 ± 0.00 mm | – | well tolerated | MIC (mg/mL) [8]: specifically active
Cc1nc2ccccc2c(=O)n1CC(=O)NN [Compound 2, 2-(2-methyl-4-oxoquinazolin-3(4H)-yl)acetohydrazide] | 1.25 mg/mL | 2.5 mg/mL | – | – | >5 mg/mL | 1250 µg/mL (≈ 5.38 mM) | – | 2500 µg/mL (≈ 10.8 mM) | 2500 µg/mL (≈ 10.8 mM) | 0.00 ± 0.00 mm | 0.00 ± 0.00 mm | 6.33 ± 1.53 mm | 0.00 ± 0.00 mm | 0.00 ± 0.00 mm | – | well tolerated | –
